Test results from patent US8067455B2, “Amino acid derived prodrugs of propofol, compositions, uses and crystalline forms thereof” (XenoPort, Inc., priority 2004, dated 2011).
Where two headings read alike, the source gives them in different places.

Experiments:
[1] = Stability at room temperature determined by LC/MS; format: physicochemical; conditions: after three months
Experimental: (§1) The hydrochloride (3.42 g, 9.89 mmol) was crystallized by dissolution in a mixture of ethanol and toluene (1/10 v/v, 110 mL) at 80° C. and the mixture allowed to cool to room temperature. Large needle-like crystals started to form after standing at room temperature for 48 h. The solution was filtered after standing for 7 days at room temperature. The product (6) was isolated as a white crystalline solid (2.7 g, 79% yield). ^1H-NMR (400 MHz, CD3OD): δ 7.16-7.24 (m, 3H), 4.81-4.85 (dd, J=12.4, 4.4 Hz, 1H), 4.59-4.63 (dd, J=12.0 Hz, 3.2 Hz, 1H), 4.45-4.49 (dd, J=4.4, 2.8 Hz, 1H), 2.98-3.02 (m, 2H), 1.18-1.19 (d, J=7.2 Hz, 12H). MS (ESI) m/z 310.3 (M+H)^+. Melting point: 188.1-189.1° C.

[2] = Solubility of compound (6) in water and PBS; format: physicochemical
Experimental: as §1

[3] = rats, oral dosing; cited from earlier work

## CC(C)c1cccc(C(C)C)c1OC(=O)OC[C@H](N)C(=O)O.Cl [compound (6), (S)-2-Amino-3-(2,6-Diisopropylphenoxy-carbonyloxy)-Propanoic Acid Hydrochloride]
[1]; aqueous solution
  degradation as an aqueous solution: no degradation
[1]; solid
  degradation as a solid: no degradation
[2]; phosphate buffered saline (PBS), aqueous buffer, read-out: solubility in phosphate buffered saline (PBS)
  solubility: 8180 µg/mL
[2]; water, read-out: solubility in water
  solubility: 7580 µg/mL

## CC(C)c1cccc(C(C)C)c1O [propofol, 2,6-diisopropylphenol]
[3]
  administered drug undergoing first pass metabolism: approximately 90%
